Common to all, as to experiment: NCI tumour cell line growth inhibition, 48 h
Assay [1] has as its system U-251.
For assay [2], the system named is SF-268.
Assay [3] relates to SN12C.
Assay [4] concerns LOX IMVI.
The subject of assay [5] is EKVX.
In assay [6] the test system is HCT-15.
The subject of assay [7] is OVCAR-8.
In assay [8] the test system is SK-MEL-2.
The subject of assay [9] is SK-MEL-28.
Assay [10] has as its system SW-620.
Assay [11] deals with Malme-3M.
In assay [12] the test system is SK-OV-3.
For assay [13], the system named is OVCAR-5.
Assay [14] deals with COLO 205.
Assay [15] concerns SK-MEL-5.
Assay [16] relates to NCI-H226.
Assay [17] concerns HOP-62.
The test system of assay [18] is NCI-H23.
In assay [19] the test system is MOLT-4.
For assay [20], the system named is HCT-116.

The source of these data is ChEMBL document CHEMBL1201862, “PubChem BioAssay data set” (2004).

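Tested at 5 concentrations; 48 h exposure; 96-well plates; endpoints linearly interpolated, else capped at highest concentration. Abbreviation: GI50, concentration required for 50% inhibition of growth.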 Calls of active or inactive are those of the source. Cut-off read from the data, not from the text of the source: active = GI50 up to about 1.1 µM and inactive = higher.

On to `CN(C)CCNC(=O)c1cccc2c1Nc1ccccc1S2`, for which the GI50 in assay [1] was 13.7 µM (inactive); in [2], 15.8 µM (inactive); in [3], 13 µM (inactive); in [4], 12.2 µM (inactive); in assay [5] it was 5.45 µM (inactive); in assay [6], 16 µM. Besides, the GI50 is 15.8 µM (inactive) in [7]; 16.3 µM (inactive) in assay [8]; 14.4 µM (inactive) in [9]; 16.7 µM (inactive) in [10]; 14.8 µM (inactive) in assay [11]; 16.1 µM (inactive) in assay [12]. In addition, the GI50 is 13.4 µM (inactive) in [13]; 11.8 µM (inactive) in assay [14]; 13.2 µM (inactive) in assay [15]; 11.5 µM (inactive) in assay [16]; 15.7 µM (inactive) in assay [17]; 14.6 µM (inactive) in assay [18]. For the same compound, the GI50 in [19] is 10.6 µM (inactive); in assay [20], 12.2 µM (inactive).
With `C=CNC(=S)n1nc(-c2ccccc2NC(=O)C(F)(F)F)c(=O)n(C(=S)NC=C)c1=S`, the GI50 in assay [1] is 34.9 µM (inactive); in [2], 15.4 µM (inactive); in [3], 48.9 µM (inactive); in assay [4] it was 31.8 µM (inactive); in [5] it was 22.3 µM (inactive); in assay [6], 16.4 µM. The GI50 in [7] was 33 µM (inactive); in assay [8] it was 73.3 µM (inactive); in [9] it was > 100 µM (inactive); in assay [10], 59.8 µM (inactive); in assay [11], 56.2 µM (inactive); in [12] it was 30.3 µM (inactive). For the same compound, the GI50 was 26.7 µM (inactive) in [13]; > 10 µM (inactive) in [14]; 13.3 µM (inactive) in [15]; 21.2 µM (inactive) in [16]; 29.6 µM (inactive) in assay [17]; 26.7 µM (inactive) in assay [18]. Moreover, the GI50 in assay [19] is 15.4 µM (inactive); in assay [20], > 100 µM (inactive).
For `CC1=NN(C(=O)c2ccccc2)C(=O)C1/N=N/c1ccccc1C(=O)O` (stereo not given), the GI50 in assay [1] was 4.79 µM (inactive); in [2], 9.79 µM (inactive); in assay [3], 7.26 µM (inactive); in assay [4], 11.5 µM (inactive); in [5], > 100 µM (inactive); in assay [6], 4.85 µM. Further, the GI50 in assay [7] is 7.87 µM (inactive); in [8], 6.21 µM (inactive); in [9], 89.1 µM (inactive); in [10], 16.8 µM (inactive); in assay [11], 10.9 µM (inactive); in assay [12] it was > 25.2 µM (inactive). The GI50 was > 73.1 µM (inactive) in assay [13]; > 72.6 µM (inactive) in assay [14]; 34 µM (inactive) in assay [15]; 9.46 µM (inactive) in [16]; 6.15 µM (inactive) in assay [17]; 3.81 µM (inactive) in assay [18]. Besides, the results for the GI50 in assay [19] and in assay [20] were 4.09 µM (inactive) and 3.24 µM (inactive), respectively.
On to `Clc1ccc(COc2ccccc2/C=N/c2c(-c3ccco3)nc3ccccn23)c(Cl)c1`, for which the GI50 in [1] is 33.7 µM (inactive); in assay [2] it was 39.3 µM (inactive); in assay [3] it was 25.8 µM (inactive); in assay [4], 17.1 µM (inactive); in [5], 17.4 µM (inactive); in assay [6], 23.3 µM. Moreover, the GI50 is 26.5 µM (inactive) in [7]; 20.2 µM (inactive) in assay [8]; 66.4 µM (inactive) in assay [9]; 26.2 µM (inactive) in [10]; 36.5 µM (inactive) in assay [11]; > 100 µM (inactive) in [12]. For the same compound, the GI50 in assay [13] is > 100 µM (inactive); in [14] it was 38.9 µM (inactive); in assay [15], 15.8 µM (inactive); in [16], 25.7 µM (inactive); in assay [17], 32.9 µM (inactive); in assay [18], 32.3 µM (inactive). The GI50 is 31.9 µM (inactive) in [19] and 17.5 µM (inactive) in [20].
